In publication PMC11434752, “Algerian Prickly Pear Seed By-Products: Fatty Acids Composition, Antioxidant, Enzyme Inhibitory Activities towards Tyrosinase, Urease, α-Amylase, and Cholinesterase, along with the Ability to Protect from Thermal Protein Denaturation” (Pharmaceuticals, 2024):

Molecular target: urease (Canavalia ensiformis, UniProt P07374)
Assay: biochemical

Chain of urease (P07374 whole entry): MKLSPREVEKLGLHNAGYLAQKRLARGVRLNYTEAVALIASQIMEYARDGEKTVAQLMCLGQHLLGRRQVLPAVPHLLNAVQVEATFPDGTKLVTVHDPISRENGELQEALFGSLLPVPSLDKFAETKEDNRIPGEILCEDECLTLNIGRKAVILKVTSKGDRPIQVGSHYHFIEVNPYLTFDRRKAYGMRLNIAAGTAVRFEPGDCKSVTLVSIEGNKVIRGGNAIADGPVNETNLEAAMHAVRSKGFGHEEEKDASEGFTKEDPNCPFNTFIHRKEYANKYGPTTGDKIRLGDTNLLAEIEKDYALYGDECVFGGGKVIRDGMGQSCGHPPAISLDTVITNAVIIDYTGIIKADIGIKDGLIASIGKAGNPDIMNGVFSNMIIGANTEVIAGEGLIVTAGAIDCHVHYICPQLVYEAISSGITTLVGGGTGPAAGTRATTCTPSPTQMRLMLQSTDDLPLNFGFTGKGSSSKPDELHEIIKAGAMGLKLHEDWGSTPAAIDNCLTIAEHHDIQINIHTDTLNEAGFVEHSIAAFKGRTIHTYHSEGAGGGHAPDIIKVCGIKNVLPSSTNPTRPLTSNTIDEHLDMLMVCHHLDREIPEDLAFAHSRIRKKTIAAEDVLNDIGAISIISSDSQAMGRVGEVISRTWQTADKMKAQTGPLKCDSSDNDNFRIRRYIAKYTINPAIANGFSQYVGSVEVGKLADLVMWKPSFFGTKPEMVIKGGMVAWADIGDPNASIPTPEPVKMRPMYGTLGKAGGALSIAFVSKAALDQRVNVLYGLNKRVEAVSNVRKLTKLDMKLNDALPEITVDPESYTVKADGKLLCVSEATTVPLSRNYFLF

`NC(N)=S` [Thiourea] was tested, and the IC50 was 111 µM.
